One series can be described thus: Aqueous solubility. The series is classed as physicochemical. The note with it: for solubility at 6 h: system solution (SS), pH 7.4, aqueous buffer, kinetic from dmso stock. As to the method:
The aqueous solubility of TXA11114 was evaluated in system solution (SS) at pH 7.4. Known concentrations of TXA11114, prepared as DMSO stock solutions, were spiked into SS and incubated for 6 h at room temperature with constant shaking (250 rpm). Caffeine and diethylstilbestrol (DES) were used as positive controls. […] Aliquots (500 µL) of diluted test and control compounds were dispensed into 96-deep-well plates in triplicate, sealed, and incubated as described above. Following incubation, 300 µL samples were withdrawn and filtered using 0.22 µm filter plates. Optical density at λ_max was measured using a UV spectrophotometer.

The nature of a further series: Plasma stability. Conditions: read-out: Plasma stability t1/2. The series is classed as in vitro ADME. On the procedure: Plasma stability was assessed by incubating the compound in plasma at 37 °C and monitoring parent compound disappearance over time by LC-MS/MS. Half-life values were calculated assuming first-order kinetics.
A further series concerns P. aeruginosa ATCC 27853. Description: Time-kill study. Conditions: levofloxacin 1X-MIC + TXA11114. It is filed as cell-based, Pseudomonas aeruginosa. As to the method:
(§1) Time-kill studies were carried out as described previously with the following changes.

A further series concerns P. aeruginosa AR-0232. Description: Time-kill study. It is filed as cell-based, Pseudomonas aeruginosa. The note with it: levofloxacin 1X-MIC + TXA11114, by 24 h. On the procedure: as §1
A further series concerns the target T1, Cav1.2 (Homo sapiens, UniProt Q13936).
T1 construct: host or cells: HEK293
Briefly: QPatch ion channel assay. The series is classed as cell-based. Conditions: read-out: % Inhibition (n = 2), Cav1.2. The source says:
(§2) The automated whole-cell patch-clamp (Qpatch HT) technique is used to record depolarizing currents, hNav1.5 and hCav1.2, and repolarizing potassium currents, hERG. Cells Recombinant HEK-293 cells stably transfected with human Nav1.5 cDNA, Recombinant HEK293 cell line expressing the human Cav1.2 (L-type voltage-gated calcium channel, hCav1.2 α1C/β2a/α2δ1, and recombinant CHO-K1 cells stably transfected with human hERG cDNA are used separately in each of these assays. The cells are harvested by Accutase and maintained in Serum-Free Medium at room temperature before assay. On the instrument, the cells are pipetted into each well of a 48-well plate in external solution. Test concentration stock solution is prepared in DMSO at 300× the final assay concentrations, and stored at −20 °C until the day of assay. On the day of the assay, an aliquot of the stock solution is thawed and diluted into external solution to make final test concentrations. A final concentration of 0.33% DMSO is maintained for each concentration of the assay compounds and controls. The assay is conducted at room temperature. Recording conditions hNav1.5 Peak current Onset and steady state block of peak Nav1.5 current are measured using a pulse pattern, repeated every 5 sec, consisting of a hyperpolarizing pulse to −120 mV for a 200 ms duration, depolarization to −15 mV amplitude for a 40 ms duration, followed by a step to 40 mV for 200 ms and finally a 100 ms ramp (1.2 V/s) to a holding potential of −80 mV. hCav1.2 currents are evoked following a 100 ms pulse to −60 mV followed by a 50 ms pulse to +10 mV before returning to the holding potential of −90 mV. This paradigm is delivered three times once every 20 s. Cells are held at −90 mV with a 5 s pulse to −60 mV every 20 s for a total of 120 s between each set of three pulses. The cell is held at −80 mV. Then the cell is depolarized to +40 mV for 500 ms and then to −80 mV over a 100 ms ramp to elicit the hERG tail current. This paradigm is delivered once every 8 s. The Extracellular Solution (control) is applied first and the cell is stabilized in the solution for 5 min. Then the test compound is applied from low to high concentrations sequentially on the same cell. The cells are incubated with each test concentration for 5 min. Reference compounds Tetracaine Nifedipine and E-4031 are tested concurrently for hNav1.5, hCav1.2 and hERG, respectively, at multiple concentrations to obtain an IC50 value.
(§3) The amplitude of the sodium current is calculated by measuring the difference between the peak inward current on stepping to −10 mV (i.e., peak current) and the leak current. The sodium current is assessed in vehicle control conditions and then at the end of each five (5)-minute compound application. Individual cell results are normalized to the vehicle control amplitude and the mean ± SEM is calculated for each compound concentration. These values are then plotted and estimated IC50 curve fits are calculated. The maximum inward current elicited on stepping to +10 mV for 50msec from −60 mV is measured. Compound interaction is assessed by dividing post-current amplitude (at the end of each three (3)-minute compound application) by the vehicle control amplitude and the mean calculated for each compound concentration. These values are then plotted and estimated IC50 curve fits are calculated. The percent inhibition of the hERG channel is calculated by comparing the peak (hERG tail) current amplitude before and after application of the compound (the current difference is normalized to vehicle control values).

The next series concerns the target T2, hERG (Homo sapiens, UniProt Q12809).
T2 construct: host or cells: CHO-K1
Description: QPatch ion channel assay. The series is classed as cell-based. Conditions: CHO-K1 cells stably transfected with human hERG, read-out: % Inhibition (n = 2), hERG.
Source text: as §2, §3

The target in a further series is T3, Nav1.5 (peak current) (Homo sapiens, UniProt Q14524).
T3 construct: host or cells: HEK-293
T3 sequence (Q14524 whole entry): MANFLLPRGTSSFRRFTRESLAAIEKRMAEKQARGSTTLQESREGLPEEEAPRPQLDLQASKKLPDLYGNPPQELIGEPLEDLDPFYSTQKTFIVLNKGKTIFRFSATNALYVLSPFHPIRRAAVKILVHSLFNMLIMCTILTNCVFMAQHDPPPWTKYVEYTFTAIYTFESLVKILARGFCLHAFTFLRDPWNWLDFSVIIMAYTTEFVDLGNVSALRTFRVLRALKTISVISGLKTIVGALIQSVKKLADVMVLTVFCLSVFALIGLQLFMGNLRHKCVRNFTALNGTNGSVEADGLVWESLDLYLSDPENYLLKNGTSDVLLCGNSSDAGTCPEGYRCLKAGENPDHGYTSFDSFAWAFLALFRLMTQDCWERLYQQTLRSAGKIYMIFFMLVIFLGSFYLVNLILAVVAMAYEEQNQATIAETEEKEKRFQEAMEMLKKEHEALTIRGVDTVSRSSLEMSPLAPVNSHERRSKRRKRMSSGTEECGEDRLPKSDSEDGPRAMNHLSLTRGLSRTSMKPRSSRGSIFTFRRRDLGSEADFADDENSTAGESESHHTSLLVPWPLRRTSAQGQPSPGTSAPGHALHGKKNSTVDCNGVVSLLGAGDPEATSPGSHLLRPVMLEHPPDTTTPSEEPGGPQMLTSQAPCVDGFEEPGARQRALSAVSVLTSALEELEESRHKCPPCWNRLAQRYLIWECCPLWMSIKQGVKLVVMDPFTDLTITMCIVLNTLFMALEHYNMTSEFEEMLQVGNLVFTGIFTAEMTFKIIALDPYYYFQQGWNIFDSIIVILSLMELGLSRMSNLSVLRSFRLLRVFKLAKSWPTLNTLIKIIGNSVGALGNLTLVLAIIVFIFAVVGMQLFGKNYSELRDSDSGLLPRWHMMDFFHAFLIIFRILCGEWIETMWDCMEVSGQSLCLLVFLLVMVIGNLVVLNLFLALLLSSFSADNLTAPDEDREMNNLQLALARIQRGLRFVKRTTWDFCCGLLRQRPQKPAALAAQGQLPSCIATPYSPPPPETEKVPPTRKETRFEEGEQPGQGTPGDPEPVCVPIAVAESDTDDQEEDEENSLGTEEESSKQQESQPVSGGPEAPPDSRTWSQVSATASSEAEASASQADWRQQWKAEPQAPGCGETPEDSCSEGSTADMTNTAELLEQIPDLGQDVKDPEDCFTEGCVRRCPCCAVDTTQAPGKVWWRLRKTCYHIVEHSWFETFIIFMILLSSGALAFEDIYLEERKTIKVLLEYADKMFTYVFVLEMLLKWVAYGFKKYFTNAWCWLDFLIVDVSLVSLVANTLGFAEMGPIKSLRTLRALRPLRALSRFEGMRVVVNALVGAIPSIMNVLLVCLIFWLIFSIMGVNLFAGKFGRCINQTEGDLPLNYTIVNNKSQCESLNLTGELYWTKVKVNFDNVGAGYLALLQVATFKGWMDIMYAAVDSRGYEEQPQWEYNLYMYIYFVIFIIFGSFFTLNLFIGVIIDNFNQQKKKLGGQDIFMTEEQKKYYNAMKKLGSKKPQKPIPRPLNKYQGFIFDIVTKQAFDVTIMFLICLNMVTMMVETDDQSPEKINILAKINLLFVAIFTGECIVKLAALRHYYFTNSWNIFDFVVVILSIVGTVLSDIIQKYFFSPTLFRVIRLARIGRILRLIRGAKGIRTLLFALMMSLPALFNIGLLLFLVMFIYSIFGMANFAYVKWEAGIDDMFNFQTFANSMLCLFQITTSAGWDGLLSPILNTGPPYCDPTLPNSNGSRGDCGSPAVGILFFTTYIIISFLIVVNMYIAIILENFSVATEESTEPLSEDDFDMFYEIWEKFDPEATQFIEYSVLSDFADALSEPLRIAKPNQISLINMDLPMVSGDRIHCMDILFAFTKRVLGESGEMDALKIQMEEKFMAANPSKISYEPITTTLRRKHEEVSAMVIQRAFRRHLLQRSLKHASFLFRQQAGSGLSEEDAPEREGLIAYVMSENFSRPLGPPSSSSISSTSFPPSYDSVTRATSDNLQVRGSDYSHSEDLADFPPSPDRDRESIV
Briefly: QPatch ion channel assay. It is filed as cell-based. Conditions: read-out: % Inhibition (n = 2), Nav1.5.
Source text: as §2, §3
(In general: Patch clamp records ionic current or voltage across a cell membrane.)

Data on two molecules can be found in article PMC13114161 (Antibiotics, 2026).

In brackets after ≈: the same amount, converted by molar mass. Where two headings read alike, the source gives them in different places.

T2 sequence (Q12809 whole entry): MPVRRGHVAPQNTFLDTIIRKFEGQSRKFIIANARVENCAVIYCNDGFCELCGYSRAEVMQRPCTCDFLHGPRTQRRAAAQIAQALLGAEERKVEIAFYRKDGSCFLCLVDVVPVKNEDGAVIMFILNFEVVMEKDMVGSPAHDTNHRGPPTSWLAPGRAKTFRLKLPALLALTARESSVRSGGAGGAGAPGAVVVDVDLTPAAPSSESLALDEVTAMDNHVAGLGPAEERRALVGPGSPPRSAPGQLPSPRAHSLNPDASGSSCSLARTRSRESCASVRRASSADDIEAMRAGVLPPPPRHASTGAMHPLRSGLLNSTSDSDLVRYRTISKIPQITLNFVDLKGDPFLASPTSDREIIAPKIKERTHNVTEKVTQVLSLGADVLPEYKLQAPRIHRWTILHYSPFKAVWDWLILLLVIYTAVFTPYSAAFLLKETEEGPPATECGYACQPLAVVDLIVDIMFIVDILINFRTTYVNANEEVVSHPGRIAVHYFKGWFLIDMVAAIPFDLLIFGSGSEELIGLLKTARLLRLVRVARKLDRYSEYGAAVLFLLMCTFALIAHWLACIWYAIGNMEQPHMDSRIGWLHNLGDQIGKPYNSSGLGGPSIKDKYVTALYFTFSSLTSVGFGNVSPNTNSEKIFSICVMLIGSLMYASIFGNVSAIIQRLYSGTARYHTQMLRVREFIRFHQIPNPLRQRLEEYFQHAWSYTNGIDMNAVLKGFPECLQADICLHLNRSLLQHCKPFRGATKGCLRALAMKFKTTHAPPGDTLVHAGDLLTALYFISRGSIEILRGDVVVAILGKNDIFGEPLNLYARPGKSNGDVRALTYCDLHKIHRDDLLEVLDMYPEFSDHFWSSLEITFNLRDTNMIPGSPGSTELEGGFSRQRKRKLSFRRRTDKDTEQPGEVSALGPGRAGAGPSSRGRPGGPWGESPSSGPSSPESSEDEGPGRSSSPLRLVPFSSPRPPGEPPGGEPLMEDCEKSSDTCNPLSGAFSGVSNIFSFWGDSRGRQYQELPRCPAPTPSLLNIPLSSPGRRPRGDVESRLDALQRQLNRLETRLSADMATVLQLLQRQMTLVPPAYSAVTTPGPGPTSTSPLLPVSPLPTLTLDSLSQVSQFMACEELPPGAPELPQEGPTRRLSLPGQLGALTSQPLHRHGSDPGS

As to `NCC(F)C[C@@H](N)CNC(=O)c1cc2ccc(-c3ccc(F)cc3)cc2[nH]1` (stereo partly drawn) [TXA11114, N-((2R)-2,5-diamino-4-fluoropentyl)-6-(4-fluorophenyl)-1H-indole-2-carboxamide], the Aqueous solubility (as a rule, the dissolved amount per volume that the medium holds) in the series “Aqueous solubility” (pH 7.4) is 145.9 ± 6.1 µM. Also, the solubility (in general, the concentration that dissolves in the medium under given conditions) at 6 h in the series “Aqueous solubility” is over 145 µM. Also, the half-life in the series “Plasma stability” (dog), in the series “Plasma stability” (mouse) and in “Plasma stability” (rat) was over 2 h throughout. In addition, the “Reduction in time-kill with levofloxacin” value was “more modest but reproducible reductions” with P. aeruginosa ATCC 27853 and at least 3 log10 in the series on P. aeruginosa AR-0232. The inhibition (commonly the relative decrease from the control value, in per cent) at 3 min, 10 µM on Cav1.2 was 0.2%. Further, the inhibition at 5 min, 10 µM on hERG is 10.9%; on Nav1.5 (peak current), -3.7%.
`NC[C@@H]1CN[C@H](CNC(=O)c2cc3ccc(-c4ccc(F)cc4)cc3[nH]2)C1` [TXA09155]: in “Aqueous solubility”, the solubility at 6 h was 155 ± 3 µM (≈ 56.8 µg/mL). For the same molecule, the inhibition at 3 min, 10 µM at Cav1.2 is 12.7%. Moreover, the inhibition at 5 min, 10 µM on hERG amounted to 9.2%; on Nav1.5 (peak current), 0.1%.
